Experimental data taken from paper PMC12153055 (Organometallics, 2025).

What was measured:
[1] = tested on: A2780cis cisplatin-resistant ovarian cancer cells; assay: MTT cytotoxicity assay, A2780cis cells; format: cell-based, human; settings: 72 h exposure, mean ± SD of three experiments
Procedure: (§1) The stability of [1]-Cl-[4]-Cl was evaluated in aqueous phosphate-buffered solution (PBS, pH 7.4) using UV–visible spectroscopy. […] The cytotoxicity of the compounds was measured according to a standard MTT assay against human breast cancer (MCF7 and MCF7CR) and ovarian cancer (A2780 and A2780cis) cell lines, and also nontumorigenic MCF10A and human embryonic kidney HEK293T cells (Table ).
(§2) All cell lines were grown in a humidified 5% CO2 environment at 37 °C in dedicated media. Growth media comprised minimum essential medium (MEM) supplemented with 10% FBS, 1% sodium pyruvate, antibiotics, and antimycotic agents for MCF7. MCF10A cells were cultured in a DMEM/F12 Ham’s mixture supplemented with 5% equine serum, 20 ng/mL EGF, 10 μg/mL insulin, […], antibiotics, and antimycotics. MCF7-CR cells were grown in minimum essential medium (MEM), 10% FBS supplemented with 0.1 mg/mL cisplatin, sodium pyruvate, antibiotics, and antimycotics. A2780 and A2780cis cells were cultured in RPMI 1640 GlutaMAX, and HEK293T cells were cultured in DMEM GlutaMAX medium containing 10% heat-inactivated FBS and antibiotics. The effect exerted on cell viability by the compounds was determined using the 3-(4,5-dimethylthiazol-2-yl)-2,5-diphenyltetrazolium bromide (MTT) assay. After individual treatments with 0–100 μM of the compound for 72 h, MTT was added to the culture media at a final concentration of 0.5 mg/mL and incubated for 2 h at 37 °C. Cisplatin was used as a positive control. The medium was replaced with 100 μL of DMSO, and after 10 min, the optical density was recorded at 550 nm on a microplate reader. At least six cultures were used for each data point. Chemicals (Merck-Sigma, Milan, Italy) and plasticware (Corning, Milan, Italy) were cell culture grade.

[2] = tested on: A2780 human ovarian carcinoma cells; assay: MTT cytotoxicity assay, A2780 cells; format: cell-based; settings: for IC50: MTT, 72 h exposure, mean ± SD of three experiments; for SI A2780 HEK293T: selectivity index, values equal IC50 HEK293T / IC50 A2780
Procedure: as §1, §2

[3] = tested on: HEK293T human embryonic kidney cells; assay: MTT cytotoxicity assay, HEK293T cells; format: cell-based; settings: 72 h exposure, mean ± SD of three experiments
Procedure: as §1, §2

[4] = Solubility in water (qualitative); format: physicochemical
[5] = target: 20S proteasome chymotrypsin-like activity (Homo sapiens, UniProt P28074); assay: Isolated 20S proteasome, chymotrypsin-like activity (Suc-Leu-Leu-Val-Tyr-AMC); format: biochemical; settings: 0–100 μM, 1 h, 37 °C, pH 8.0
Procedure: (§3) Proteasome inhibition by the compounds was evaluated with respect to three major activities of the 20S proteasome, namely, chymotrypsin-like, trypsin-like, and caspase-like activities.
(§4) The effect of the compounds on the activity of the isolated 20S proteasome was tested using specific synthetic fluorogenic peptide substrates (Suc-Leu-Leu-Val-Tyr-AMC, Z-Leu-Ser-Thr-Arg-AMC, and Z-Leu-Leu-Glu-AMC for chymotrypsin-like, trypsin-like, and peptidyl glutamyl peptide hydrolase activity, respectively) as reported elsewhere. Briefly, individual mixtures consisting of the compounds (0–100 μM), 1 μg of isolated 20S proteasome, the specific substrate, and 50 mM Tris–HCl pH 8.0 up to a final volume of 100 μL were incubated at 37 °C, and after 1 h, the fluorescence measurements of the hydrolyzed AMC were recorded on a SpectraMax Gemini XPS microplate reader (λexc = 365 nm, λem = 449 nm).

[6] = target: 20S proteasome PGPH (caspase-like) activity (Homo sapiens, UniProt P28072); assay: Isolated 20S proteasome, peptidyl glutamyl peptide hydrolase (caspase-like) activity (Z-Leu-Leu-Glu-AMC); format: biochemical; settings: 0–100 μM, 1 h, 37 °C, pH 8.0
Procedure: as §3, §4

[7] = tested on: MCF10A nontumorigenic cells; assay: MTT cytotoxicity assay, MCF10A cells; format: cell-based, human; settings: 72 h exposure, mean ± SD of three experiments
Procedure: as §1, §2

[8] = target: 20S proteasome trypsin-like activity (Homo sapiens, UniProt Q99436); assay: Isolated 20S proteasome, trypsin-like activity (Z-Leu-Ser-Thr-Arg-AMC); format: biochemical; settings: for IC50: 0–100 μM, 1 h, 37 °C, pH 8.0
Procedure: as §3, §4

[9] = tested on: MCF7-CR cisplatin-resistant breast cancer cells; assay: MTT cytotoxicity assay, MCF7CR cells; format: cell-based, human; settings: 72 h exposure, mean ± SD of three experiments
Procedure: as §1, §2

dsDNA oligomer = assay: SPR biosensor binding to surface-anchored dsDNA oligomer; settings: surface-blocked DNA oligomer; for Kd: equilibrium dissociation constant
Procedure: The DNA binding ability of curcuminoid ligands and their complexes was evaluated by using a Surface plasmon resonance (SPR) biosensor. The monoexponential nature of binding kinetics for all the compounds is consistent with the presence of a single high-affinity site on DNA (Figure ).
The binding kinetics/affinities of the molecules of interest for DNA were studied according to a previously described biosensor-based method. Briefly, streptavidin was anchored to a carboxylate surface via EDC/NHS chemistry, and 5′-biotinylated dsDNA oligomer (sequence: 3′-[…]-5′) was coupled to surface-blocked streptavidin. Compounds were independently added to the DNA-coated surface at different concentrations, each time following binding kinetics up to equilibrium. PBS buffer was used for both the dissociation and the regeneration steps. Experimental data were fitted to both mono- and biexponential models, and the validity of each model was assessed by a standard F-test procedure. The binding sites on DNA were mapped according to independent competitive binding assays individually using a minor groove binder (GelRed) and a major groove binder (methyl green), respectively. Briefly, GelRed displacement was monitored by comparing the emission spectra of solutions containing different concentrations of curcuminoid-like ligands/complexes (0–100 μM), 20 μM DNA, and GelRed (10 μM) in 10 mM phosphate buffer, pH 7.4. Similarly, methyl green displacement assay was performed by monitoring the absorbance at 630 nm upon addition of candidate competitors (0–100 μM), 100 μM DNA, and methyl green (10 μM) in 50 mM Tris–HCl buffer and 7.5 mM MgSO4, pH 7.5.

[10] = tested on: MCF7 human breast adenocarcinoma cells; assay: MTT cytotoxicity assay, MCF7 cells; format: cell-based; settings: for IC50: MTT, 72 h exposure, mean ± SD of three experiments; for SI MCF7 MCF10A: selectivity index, values equal IC50 MCF10A / IC50 MCF7
Procedure: as §1, §2

[11] = tested on: 5′-biotinylated dsDNA oligomer (DNA, duplex) TGTAATCGTAGGTTGGTCCCATCACCCACC/GGTGGGTGATGGGACCAACCTACGATTACA; assay: SPR biosensor kinetics, immobilised DNA; settings: PBS buffer; monoexponential fit, single site
p62 = assay: Western blot quantification of p62 in MCF7 cells; format: cell-based, human; settings: 10 μM, 24 h
Procedure: Since no significant correlation emerged among cytotoxicity, DNA binding affinity, and proteasome inhibition, the effects of the treatment on the expression levels of p62 were evaluated. p62 is a multifunctional binding protein that is involved in signaling pathways of many cellular activities, including autophagy, whose abnormal expression is associated with malignancies, breast cancer in particular. […] This effect was more evident for the free ligand, in agreement with its higher cytotoxicity to breast cancer cells compared with that of the corresponding ruthenium complex (Figure ).
4 Representative autoradiographs (upper panel) and densitometric analyses (lower panel) of p62 levels in MCF7 cells treated with 10 μM of HZPbdcurc and [3]-Cl for 24 h (*p < 0.01 compared with the control; #p < 0.01 compared with [3]-Cl).
Semiquantitative analysis of p62 was performed by Western blotting upon individual 24 h treatments of MCF-7 cells with 10 μM of HZPbdcurc or [Ru(p-cym)(HZPbdcurc)-Cl]-Cl. Treated cells were lysed, and 15 μg of total protein was electrophoresed on 12% SDS-PAGE, then protein bands were electroblotted onto PVDF membranes (Millipore–Milan, Italy). After incubation with anti-p62 monoclonal antibody (Merck Sigma–Milan, Italy), the bands were immunodetected on a ChemiDoc MP imaging system (Bio-Rad - Milan, Italy). […] Western blot results were analyzed using Fiji software.

solubility in water [4] | IC50 [5] [µM] | IC50 [6] [µM] | IC50 [8] [µM] | kass (dsDNA oligomer) [M^–1s^–1] | kdiss (dsDNA oligomer) [s^–1] | Kd (dsDNA oligomer) [µM] | KD [11] [µM] | Compound | IC50 [1] [µM] | IC50 [2] [µM] | SI A2780 HEK293T [2] | IC50 [3] [µM] | IC50 [9] [µM] | IC50 [10] [µM] | further results
soluble in polar solvents, including H2O | > 100 | > 100 | 63 ± 7 | 32082 ± 773 | 0.009 ± 0.004 | 0.29 ± 0.14 |  | COc1cc(/C=C/c2cc(/C=C/c3ccc(O)c(OC)c3)n(-c3ccccn3)n2)ccc1O.Cc1ccc(C(C)C)cc1.[Cl-].[Cl][Ru+] [[1]Cl, [Ru(p-cym)(HZPcurc)Cl]Cl] | 6.6 ± 0.9 | 4.6 ± 0.3 | 5.43 | 25 ± 1 | 41 ± 10 | 49.2 ± 5 | IC50 [7]: 31.7 ± 10 µM; inhibition of the trypsin-like activity (in words) [8]: inhibition of the trypsin-like activity; SI MCF7 MCF10A [10]: 0.64
 |  |  |  |  |  |  | 17.0 ± 7.3 | Oc1ccc(/C=C/c2cc(/C=C/c3ccc(O)cc3)n(-c3ccccn3)n2)cc1 |  |  |  |  |  |  | 
 |  |  |  |  |  |  | 4.5 ± 2.7 | COc1cc(/C=C/c2cc(/C=C/c3ccc(O)c(OC)c3)n(-c3ccccn3)n2)ccc1O |  |  |  |  |  |  | 
 |  |  |  |  |  |  |  | N.N.[Cl][Pt][Cl] [Cisplatin, reference compound] | 7 ± 1 | 0.25 ± 0.02 |  | 2.8 ± 0.5 | 49.1 ± 7 | 4.2 ± 2.3 | 
completely soluble | 84 ± 60 | > 100 | 51 ± 13 | 1156 ± 179 | 0.005 ± 0.002 | 4.2 ± 1.8 |  | COc1cc(/C=C/c2cc(/C=C/c3ccc(O)c(OC)c3)n(-c3ccccn3)n2)ccc1O.Cc1ccc(C(C)C)cc1.[Cl-].[Cl][Os+] [[2]Cl, [Os(p-cym)(HZPcurc)Cl]Cl] | 12.1 ± 0.6 | 6.3 ± 0.5 | 3.97 | 25 ± 8 | > 100 | > 100 | IC50 [7]: 25.6 ± 15 µM; inhibition of the trypsin-like activity (in words) [8]: inhibition of the trypsin-like activity
 |  |  |  |  |  |  | 0.29 ± 0.14 | COc1cc(/C=C/c2cc(/C=C/c3ccc(O)c(OC)c3)n(-c3ccccn3)n2)ccc1O.Cc1ccc(C(C)C)cc1.[Cl-].[Ru+2] |  |  |  |  |  |  | 
insoluble in H2O | > 100 | > 100 | > 100 | 2994 ± 1142 | 0.013 ± 0.009 | 4.5 ± 2.7 |  | COc1cc(/C=C/c2cc(/C=C/c3ccc(O)c(OC)c3)n(-c3ccccn3)n2)ccc1O [HZPcurc, 4,4′-((1E,1′E)-(1-(pyridin-2-yl)-1H-pyrazole-3,5-diyl)bis(ethene-2,1-diyl))bis(2-methoxyphenol)] |  |  | 3.10 |  |  |  | IC50 ([1]; Homo sapiens, A2780cis): 6.7 ± 0.6 µM; IC50 ([2]; Homo sapiens, A2780): 5.3 ± 0.4 µM; IC50 ([3]; Homo sapiens, HEK-293T): 16.4 ± 0.6 µM; IC50 ([7]; Homo sapiens, MCF-10A): 7 ± 4.5 µM; IC50 ([9]; Homo sapiens): 17.7 ± 3.6 µM; IC50 ([10]; Homo sapiens, MCF7): 23 ± 6 µM; SI MCF7 MCF10A [10]: 0.30
 | > 100 | > 100 | > 100 | 1808 ± 740 | 0.031 ± 0.004 | 17 ± 7.3 |  | Oc1ccc(/C=C/c2cc(/C=C/c3ccc(O)cc3)n(-c3ccccn3)n2)cc1 [HZPbdcurc, 4,4′-((1E,1′E)-(1-(pyridin-2-yl)-1H-pyrazole-3,5-diyl)bis(ethene-2,1-diyl))diphenol] |  |  | 2.13 |  |  |  | IC50 ([1]; Homo sapiens, A2780cis): 11.1 ± 2.9 µM; IC50 ([2]; Homo sapiens, A2780): 8 ± 1.2 µM; IC50 ([3]; Homo sapiens, HEK-293T): 17 ± 0.9 µM; p62 levels (p62): an increase in the levels of p62 was observed; IC50 ([7]; Homo sapiens, MCF-10A): 9.7 ± 6.5 µM; IC50 ([9]; Homo sapiens): 25.9 ± 11 µM; IC50 ([10]; Homo sapiens, MCF7): 35.1 ± 3 µM; SI MCF7 MCF10A [10]: 0.28
partly soluble in H2O | 98 ± 50 | > 100 | 61 ± 44 | 266 ± 102 | 0.010 ± 0.002 | 39.2 ± 17 |  | Cc1ccc(C(C)C)cc1.Oc1ccc(/C=C/c2cc(/C=C/c3ccc(O)cc3)n(-c3ccccn3)n2)cc1.[Cl-].[Cl][Os+] [[4]Cl, [Os(p-cym)(HZPbdcurc)Cl]Cl] | 5.4 ± 0.3 | 2.4 ± 0.4 | 13.33 | 32 ± 2 | > 100 | > 100 | IC50 [7]: 25.8 ± 10 µM; inhibition of the trypsin-like activity (in words) [8]: inhibition of the trypsin-like activity
 |  |  |  |  |  |  | 39.2 ± 17.0 | Cc1ccc(C(C)C)cc1.Oc1ccc(/C=C/c2cc(/C=C/c3ccc(O)cc3)n(-c3ccccn3)n2)cc1.[Cl-].[Os+2] |  |  |  |  |  |  | 
 |  |  |  |  |  |  | 4.2 ± 1.8 | COc1cc(/C=C/c2cc(/C=C/c3ccc(O)c(OC)c3)n(-c3ccccn3)n2)ccc1O.Cc1ccc(C(C)C)cc1.[Cl-].[Os+2] |  |  |  |  |  |  | 
 |  |  |  |  |  |  | 2.2 ± 1.5 | Cc1ccc(C(C)C)cc1.Oc1ccc(/C=C/c2cc(/C=C/c3ccc(O)cc3)n(-c3ccccn3)n2)cc1.[Cl-].[Ru+2] |  |  |  |  |  |  | 
